Measured values reported in ChEMBL document CHEMBL5137008, “Recent advances of antitumor shikonin/alkannin derivatives: A comprehensive overview focusing on structural classification, synthetic approaches, and mechanisms of action” (Eur J Med Chem, 2022).

Columns and labels:
[1] = test system: HepG2; assay: Anticancer activity against human HepG2 cells assessed as inhibition of cell growth incubated for 24 hrs by MTT assay; type: functional, cell-based; conditions: HepG2, 24 h
[2] = test system: MCF7; assay: Antiproliferative activity against human MCF7 cells assessed as inhibition of cell growth incubated for 24 hrs in presence of foetal bovine serum by MTT assay; type: functional, cell-based; conditions: MCF7, 24 h
[3] = test system: L02; assay: Antiproliferative activity against human L02 cells assessed as inhibition of cell proliferation incubated for 20 hrs by MTT assay; type: functional, cell-based; conditions: L02, 20 h
[4] = test system: MCF7; assay: Anticancer activity against human MCF7 cells incubated for 72 hrs by MTT assay; type: functional, cell-based; conditions: MCF7, 72 h
[5] = test system: HeLa; assay: cells; conditions: Homo sapiens, 24 h
[6] = test system: A549; assay: Anticancer activity against human A549 cells assessed as inhibition of cell proliferation incubated for 48 hrs by MTT assay; type: functional, cell-based; conditions: A549, 48 h
[7] = Cytotoxicity against human MCF-10A assessed as inhibition of cell growth incubated for 24 hrs in presence of foetal bovine serum by MTT assay; type: toxicity, cell-based; conditions: MCF-10A cells
[8] = test system: MDA-MB-436; assay: Antiproliferative activity against human MDA-MB-436 cells assessed as inhibition of cell growth incubated for 24 hrs in presence of foetal bovine serum by MTT assay; type: functional, cell-based; conditions: MDA-MB-436, 24 h
[9] = test system: HeLa; assay: Antiproliferative activity against human HeLa cells assessed as inhibition of cell growth incubated for 24 hrs by MTT assay; type: functional, cell-based
[10] = test system: MGC-803; assay: Anticancer activity against human MGC-803 cells incubated for 72 hrs by MTT assay; type: functional, cell-based; conditions: MGC-803, 72 h
[11] = test system: HeLa; assay: Antiproliferative activity against human HeLa cells assessed as inhibition of cell proliferation incubated for 24 hrs by MTT assay; type: functional, cell-based
[12] = test system: A549; assay: Antiproliferative activity against human A549 cells assessed as inhibition of cell proliferation incubated for 24 hrs by CCK-8 assay; type: functional, cell-based; conditions: A549, 24 h
[13] = test system: A549; assay: Anticancer activity against human A549 cells assessed as inhibition of cell growth incubated for 72 hrs by MTT assay; type: functional, cell-based; conditions: A549, 72 h
[14] = Antiproliferative activity against human BGC cells assessed as inhibition of cell proliferation incubated for 20 hrs by MTT assay; type: functional, cell-based
[15] = Cytotoxicity against human L02 cells assessed as reduction in cell viability incubated for 24 hrs by MTT assay; type: toxicity, cell-based
[16] = test system: BT-474; assay: Antiproliferative activity against human BT-474 cells assessed as inhibition of cell growth incubated for 24 hrs in presence of foetal bovine serum by MTT assay; type: functional, cell-based; conditions: BT-474, 24 h
[17] = test system: MG-63; assay: Antiproliferative activity against human MG-63 cells incubated for 24 hrs by MTT assay; type: functional, cell-based; conditions: MG-63, 24 h
[18] = test system: SW872; assay: Anticancer activity against human SW872 cells assessed as inhibition of cell growth incubated for 72 hrs by MTT assay; type: functional, cell-based; conditions: SW872, 72 h
[19] = test system: MDA-MB-231; assay: Antiproliferative activity against human MDA-MB-231 cells assessed as inhibition of cell growth incubated for 24 hrs by MTT assay; type: functional, cell-based; conditions: MDA-MB-231, 24 h
[20] = test system: B16-F10; assay: Anticancer activity against mouse B16-F10 cells assessed as inhibition of cell proliferation incubated for 48 hrs by MTT assay; type: functional, cell-based; conditions: B16-F10, 48 h
[21] = test system: HepG2; assay: Antiproliferative activity against human HepG2 cells assessed as reduction in cell viability incubated for 24 hrs by MTT assay; type: functional, cell-based; conditions: HepG2, 24 h
[22] = test system: MG-63; assay: Anticancer activity against human MG-63 cells assessed as inhibition of cell proliferation incubated for 48 hrs by MTT assay; type: functional, cell-based; conditions: MG-63, 48 h
[23] = Cytotoxicity against human L02 cells assessed as inhibition of cell growth incubated for 24 hrs by MTT assay; type: toxicity, cell-based
[24] = test system: HCT-15; assay: Anticancer activity against human HCT-15 cells incubated for 72 hrs by MTT assay; type: functional, cell-based; conditions: HCT-15, 72 h
[25] = test system: HepG2; assay: Antiproliferative activity against human HepG2 cells assessed as inhibition of cell proliferation incubated for 20 hrs by MTT assay; type: functional, cell-based; conditions: HepG2, 20 h
[26] = test system: MDA-MB-231; assay: Antiproliferative activity against human MDA-MB-231 cells assessed as inhibition of cell growth incubated for 24 hrs in presence of foetal bovine serum by MTT assay; type: functional, cell-based; conditions: MDA-MB-231, 24 h
[27] = test system: MCF7; assay: Antiproliferative activity against human MCF7 cells assessed as inhibition of cell proliferation incubated for 20 hrs by MTT assay; type: functional, cell-based; conditions: MCF7, 20 h
[28] = Cytotoxicity against human L02 incubated for 24 hrs by MTT assay; type: toxicity, cell-based; conditions: L02 cells
[29] = test system: A549; assay: Antiproliferative activity against human A549 cells assessed as reduction in cell viability incubated for 24 hrs by MTT assay; type: functional, cell-based; conditions: A549, 24 h
[30] = test system: HepG2; assay: Antiproliferative activity against human HepG2 cells incubated for 24 hrs by MTT assay; type: functional, cell-based; conditions: HepG2, 24 h
[31] = test system: MDA-MB-468; assay: Antiproliferative activity against human MDA-MB-468 cells assessed as inhibition of cell growth incubated for 24 hrs in presence of foetal bovine serum by MTT assay; type: functional, cell-based; conditions: MDA-MB-468, 24 h
[32] = test system: Ca9-22; assay: Cytotoxicity against human Ca9-22 cells assessed as reduction in cell viability incubated for 24 hrs by MTT assay; type: functional, cell-based; conditions: Ca9-22, 24 h
[33] = test system: MCF7; assay: Antiproliferative activity against human MCF7 cells assessed as inhibition of cell growth incubated for 24 hrs by MTT assay; type: functional, cell-based; conditions: MCF7, 24 h
[34] = test system: HepG2; assay: Antiproliferative activity against human HepG2 cells assessed as inhibition of cell proliferation incubated for 24 hrs by MTT assay; type: functional, cell-based; conditions: HepG2, 24 h
[35] = Cytotoxicity against human skin fibroblast cells assessed as reduction in cell viability incubated for 72 hrs by MTT assay; type: toxicity, cell-based
[36] = test system: A549; assay: Antiproliferative activity against human A549 cells assessed as inhibition of cell growth incubated for 24 hrs by MTT assay; type: functional, cell-based; conditions: A549, 24 h
[37] = test system: MCF7; assay: Antiproliferative activity against human MCF7 cells assessed as inhibition of cell proliferation incubated for 24 hrs by CCK-8 assay; type: functional, cell-based; conditions: MCF7, 24 h
[38] = test system: A549; assay: Antiproliferative activity against human A549 cells assessed as inhibition of cell proliferation incubated for 20 hrs by MTT assay; type: functional, cell-based; conditions: A549, 20 h
[39] = test system: HCT-8; assay: Antiproliferative activity against human HCT-8 cells assessed as inhibition of cell proliferation incubated for 24 hrs by CCK-8 assay; type: functional, cell-based; conditions: HCT-8, 24 h
[40] = test system: HeLa; assay: Antiproliferative activity against human HeLa cells assessed as inhibition of cell proliferation incubated for 24 hrs by CCK-8 assay; type: functional, cell-based
[41] = Cytotoxicity against human L02 cells assessed as inhibition of cell growth incubated for 24 hrs in presence of foetal bovine serum by MTT assay; type: toxicity, cell-based
[42] = test system: HeLa; assay: Antiproliferative activity against human HeLa cells assessed as reduction in cell viability incubated for 24 hrs by MTT assay; type: functional, cell-based
[43] = test system: HeLa; assay: Antiproliferative activity against human HeLa cells assessed as inhibition of cell proliferation incubated for 20 hrs by MTT assay; type: functional, cell-based
[44] = Anticancer activity against human A875 cells assessed as inhibition of cell growth incubated for 72 hrs by MTT assay; type: functional, cell-based; conditions: A875, 72 h
[45] = test system: MDA-MB-231; assay: Antiproliferative activity against human MDA-MB-231 cells incubated for 24 hrs by MTT assay; type: functional, cell-based; conditions: MDA-MB-231, 24 h
[46] = Inhibition of bovine brain tubulin polymerization preincubated with compound followed by GTP addition and measured after 20 mins by turbidimetry-based spectrophotometric method; design: species or system Bos taurus

Compound: CC(C)=CC[C@@H](O)C1=CC(=O)c2c(O)ccc(O)c2C1=O [SHIKONIN]
- IC50 [1]: 0.42 µM
- IC50 [2]: 4.57 µM
- IC50 [3]: 65.3 µM
- IC50 [4]: 2.11 µM
- IC50 [5]: 4.8 µM
- IC50 [6]: 5.06 µM
- IC50 at 24 h [7]: 23.5 µM
- IC50 [8]: 3.61 µM
- IC50 [9]: 6.5 µM
- IC50 [10]: 1.28 µM
- IC50 [11]: 5.75 µM
- IC50 [12]: 7.73 µM
- IC50 [13]: 1.8 µM
- IC50 [14]: 2.2 µM
- IC50 at 24 h [15]: 10.5 µM
- IC50 [16]: 5.74 µM
- IC50 [17]: 7.36 µM
- IC50 [18]: 0.76 µM
- IC50 [19]: 8.98 µM
- IC50 [20]: 3.72 µM
- IC50 [21]: 1.29 µM
- IC50 [22]: 5.67 µM
- IC50 at 24 h [23]: 3.26 µM
- IC50 [24]: 0.94 µM
- IC50 [25]: 0.92 µM
- IC50 [26]: 2.88 µM
- IC50 [27]: 1.03 µM
- IC50 at 24 h [28]: 83.8 µM
- IC50 [29]: 1.71 µM
- IC50 [30]: 2.73 µM
- IC50 [31]: 3.28 µM
- IC50 [32]: 13.6 µM
- IC50 [33]: 7.75 µM
- IC50 [34]: 9.36 µM
- IC50 at 72 h [35]: 1.2 µM
- IC50 [36]: 10.4 µM
- IC50 [37]: 9.32 µM
- IC50 [38]: 2.51 µM
- IC50 [39]: 9.2 µM
- IC50 [40]: 11.1 µM
- IC50 at 24 h [41]: 10.5 µM
- IC50 [42]: 2.82 µM
- IC50 [43]: 3.11 µM
- IC50 [44]: 0.58 µM
- IC50 [45]: 108 µM
- IC50 [46]: 30.2 µM
